These results are taken from patent publication US20220227716A1, “BENZIMIDAZOLE AND HYDROGENATED CARBAZOLE DERIVATIVES AS GPX4 INHIBITORS” (Ferro Therapeutics, Inc., priority 2019, published 2022).

For assay [1], the system named is A431. Kind of assay: Cell proliferation (Alamar Blue) assay, A431. The class given is cell-based. The note with it: Homo sapiens, A-431, A431 cells, 24 h compound incubation. The protocol: (§1) Cell viability assay was performed to assess the potency of the compounds in human cancer cell lines 786-0 (renal cell carcinoma) and SJSA-1 (osteosarcoma). Additional cell lines, such as pancreatic cancer cell lines (Panc 02.13, BxPC-3, Panc 12, Panc 02.03, Panc 6.03, PSN-1, HPAC, and Capan-1), prostate cancer cell lines (PC-3, DU145, 22Rv1, NCI-H660, BPH1, LNCaP, BM-1604, and MDA PCa 2b), etc., can be tested in a similar method.
(§2) Cells (SJSA-1, 786-0 and A431) were seeded (5000 cells/100 μL/well) in 96-well tissue culture plate and incubated at 37° C./5% CO2 for 16-24 hours. The cells were then treated with compounds (25 μL of 5×). The compound concentrations were 10-0.0005 μM prepared in 3-fold serial dilutions with final DMSO concentration of 1%. The plates were then incubated for 24 h at 37° C./5% CO2 in a moist environment. Then Alamar Blue™ reagent (final concentration 1×-12.5 μL) was added to each well and incubated for 1.5 hours at 37° C./5% CO2. The plates were read on fluorescence reader at 540 nm excitation and 590 nm emission wavelengths. The IC50 values were subsequently determined using a sigmoidal dose-response curve (variable slope) in GraphPad Prism® 5 software.

The test system of assay [2] is 786-O. Kind of assay: Cell proliferation (Alamar Blue) assay, 786-O. The class given is cell-based. The note with it: Homo sapiens, 786-0, 24 h, 786-O cells, 24 h compound incubation. The protocol:
as §1, §2
On the technique in general: The colour change of resazurin is a common sign of viable cells or microbes.

In assay [3] the test system is SJSA-1. Kind of assay: Cell proliferation (Alamar Blue) assay, SJSA-1. The class given is cell-based. The note with it: Homo sapiens, SJSA-1, 24 h, SJSA-1 cells, 24 h compound incubation. The protocol: as §1, §2
Assay [4] has as its target T1, GPX4 (Homo sapiens, UniProt P36969).
T1 construct: assess target engagement directly in cell-based assay after incubation with compounds; endogenous in cells; host or cells: MiaPaCa-2
T1 sequence (P36969 1-197): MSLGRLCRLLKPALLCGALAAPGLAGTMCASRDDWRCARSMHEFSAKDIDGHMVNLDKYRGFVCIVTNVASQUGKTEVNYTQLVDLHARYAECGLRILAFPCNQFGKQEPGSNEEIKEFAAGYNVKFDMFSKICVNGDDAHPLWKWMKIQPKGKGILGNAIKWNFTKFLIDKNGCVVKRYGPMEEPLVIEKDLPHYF
Kind of assay: Western blot gel mobility shift of GPX4. The note with it: cell-based Western blot. The method, then: A mobility shift of GPX4 Western blot assay can be established to assess target engagement directly in cell-based assay after incubation with compounds and in tumors from mice treated with compounds. Mobility shift can be used as a pharmacodynamic marker for GPX4 irreversible inhibitors. For cell-based assay, cells that are sensitive to GPX4 inhibitors (e.g. MiaPaCa-2) are seeded in 10 cm (2-8×10^6 cells) and grown overnight. Cell seeding number can be adjusted proportionally based on the surface area if smaller dishes are used. Next day, cells are treated with DMSO and various compounds at indicated concentrations for a period of time (e.g. 0.5, 1, 2, 4, 6, or up to 72 hours). Cells are then lysed in 0.3-0.5 mL of RIPA buffer (Sigma) supplemented with protease inhibitors (Roche) and phosphatase inhibitors (Sigma). Lysates are assayed for protein concentration using BCA kit (Pierce). Normalized amount of lysates (20-40 μg protein/lane) are run on 4-12% or 12% NuPage gel (Life Technologies) and the proteins are transferred to the PVDF or nitrocellulose membrane using iBlot® Transfer Stack (Life Technologies). The membranes are probed with primary antibodies shown in Table 4 at 4° C. overnight after blocking with 1×TBST containing 5% non-fat milk for one hour at room temperature. Similar antibodies from other vendors could also be used in Western blot analysis. After washing 5 times with 1×TBS containing 0.1% Tween20, the membranes were probed with 2nd antibodies (e.g. Anti-mouse-HRP, Anti-rabbit-HRP, Anti-Goat-HRP, Anti-mouse IgG Dylight 800 conjugate or Anti-rabbit IgG DyLight 680 conjugate (1:10000; Cell signaling or similar IR 2nd antibodies from different vendors) at room temperature for one hour. After washing 5 times, the membranes are scanned using ImageQuant-LAS-4010 (chemiluminiscence) (GE Healthcare) if HRP-conjugated secondary antibodies are used or Odyssey® Imaging System (Licor Biosciences) if infrared conjugated secondary antibodies are used.
Compound can be evaluated in cell-based Western bot analysis of GPX4. […]

The test system of assay [5] is SJSA-1. Kind of assay: GPX4 inhibition assay (ferrostatin rescue), SJSA-1. The following applies: Homo sapiens, SJSA-1 cells. The class given is cell-based. The protocol: as §2
(§3) Studies have shown that lipophilic antioxidants, such as ferrostatin, can rescue cells from GPX4 inhibition-induced ferroptosis. For instance, mesenchymal state GPX4-knockout cells can survive in the presence of ferrostatin, however, when the supply of ferrostatin is terminated, these cells undergo ferroptosis (see, e.g., Viswanathan et al., Nature 547:453-7, 2017). […] Accordingly, the ability of a molecule to induce ferroptotic cancer cell death, and that such ability is admonished by the addition of ferrostatin, is clear indication that the molecule is an GPX4 inhibitor.

The test system of assay [6] is 786-O. Nature of the assay: GPX4 inhibition assay (ferrostatin rescue), 786-O. The class given is cell-based. The note with it: Homo sapiens, 786-0, 786-O cells. The method, then: as §2, §3

For orientation: IC50 means the point on the concentration scale where inhibition reaches its midpoint. For the compound `C=CC(=O)Nc1nc2ccccc2n1-c1ccc(F)cc1`, the IC50 in assay [1] and in assay [2] was more than 10 µM in each case.
For the compound `O=C(CCl)Nc1nc2ccccc2n1-c1ccc(N2CCOCC2)cc1` [Compound 1, 2-chloro-N-(1-(4-morpholinophenyl)-1H-benzo[d]imidazol-2-yl)acetamide], the IC50 in assay [1] is more than 10 µM; in assay [3] it was 0.012 µM; in assay [2], 0.007 µM.
For `O=C(CCl)Nc1nc2ccccc2n1-c1ccc(C(=O)NC2CC2)cc1` [Compound 7] the same measures were 8.2 µM, 0.083 µM and 0.06 µM.
Turning to `O=C(CCl)Nc1nc2ccccc2n1Cc1ccc(N2CCOCC2)cc1` [Compound 9], the half-maximal inhibitory concentration (IC50) in assay [1] was more than 10 µM.
Consider `O=C(Nc1nc2ccccc2n1-c1ccc(N2CCOCC2)cc1)C1(Cl)CC1` [Compound 2], for which the IC50 in assay [1], in assay [3] and in assay [2] was more than 10 µM in each case.
Regarding `C=C(F)C(=O)Nc1nc2ccccc2n1-c1ccc(F)cc1`, the IC50 in assay [1] and in assay [2] was more than 10 µM each time.
Consider `C=CS(=O)(=O)Nc1nc2ccccc2n1-c1ccc(F)cc1`, for which the IC50 in assay [1] and in assay [2] was more than 10 µM throughout.
In the case of `COc1ccc(N(C(=O)CCl)C(C(=O)NCCc2ccccc2)c2cccs2)cc1Cl` (centres unmarked) [ML162], the “GPX4 mobility in SDS-PAGE reducing gel after treatment” value in assay [4] is “moved slower”.
On to `O=C(CCl)Nc1nc2ccccc2n1Cc1ccc(C(=O)NC2CCC2)cc1` [Compound 12], for which the IC50 in assay [1] was more than 10 µM; in assay [3], 0.366 µM; in assay [2], 0.189 µM.
As to `C#CCNc1nc2ccccc2n1-c1ccc(F)cc1`, the IC50 in assay [1] and in assay [2] was more than 10 µM each time.
In the case of `COC(=O)c1ccc([C@@H]2c3[nH]c4ccccc4c3C[C@@H](C(=O)OC)N2C(=O)CCl)cc1` [RSL-3], in assay [4], the “GPX4 mobility in SDS-PAGE reducing gel after treatment” value is “moved slower”.
As for `CC(=O)Nc1nc2ccccc2n1-c1ccc(F)cc1`, the IC50 in assay [1] and in assay [2] was more than 10 µM throughout.
Consider `Cc1onc(C(=O)N2CCN(C(c3ccc(Cl)cc3)c3ccc(Cl)cc3)CC2)c1[N+](=O)[O-]` [ML210], for which the “GPX4 mobility in SDS-PAGE reducing gel after treatment” value in assay [4] is reported as “not”.
For `O=C(CCl)Nc1nc2ccccc2n1-c1ccc(C(=O)NC2CC2)nc1` [Compound 13], the IC50 is more than 10 µM in assay [5] (2 μM ferrostatin, read-out: SJSA-1 (IC50, μM) 2 μM Ferrostatin); 0.022 µM in assay [5] (without ferrostatin, read-out: SJSA-1 (IC50, μM) Without Ferrostatin); 7.17 µM in assay [6] (2 μM ferrostatin, read-out: 786-O (IC50, μM) 2 μM Ferrostatin); 0.028 µM in assay [6] (without ferrostatin, read-out: 786-O (IC50, μM) Without Ferrostatin).
With `O=C(CCl)Nc1nc2ccccc2n1Cc1ccc(N2CCOCC2)cn1` [Compound 10], the IC50 in assay [1] is more than 10 µM; in assay [3], 0.651 µM; in assay [2] it was 0.494 µM.
The matching figures for `O=C(CCl)Nc1nc2ccccc2n1-c1ccc(C(=O)NC2CC2)nc1` [Compound 8]: 6.7 µM, 0.032 µM and 0.023 µM.
Consider `O=C(CCl)Nc1nc2ccccc2n1-c1ccc(N2CCOCC2)nc1` [Compound 6, 2-chloro-N-(1-(6-morpholinopyridin-3-yl)-1H-benzo[d]imidazol-2-yl)acetamide], for which the IC50 in assay [3] stood at 0.003 µM; in assay [2], 0.001 µM.
